The nature of this series: Pharmacokinetic studies: bioavailability after oral administration. Conditions: in vivo, nach oraler Gabe, read-out: Bioverfügbarkeit. The text has this:
Als Ergebnis pharmakokinetischer Untersuchungen wurde festgestellt, daß Ipsapiron nach oraler Gabe eine Bioverfügbarkeit von nur 40 % aufweist. Ein erheblicher Wirkstoffanteil wird bereits präsystemisch metabolisiert und kann nicht bioverfügbar werden. Dies ist nachteilig, weil dieser Substanzverlust durch eine erhöhte Wirkstoffdosis ausgeglichen werden muß. Es resultieren große, für den Patienten schlecht schluckbare Arzneiformen und eine erhebliche Belastung des Patienten mit pharmakologisch inaktiven Ipsapiron-Metaboliten. Ferner nehmen mit sinkender Bioverfugbarkeit die interindividuellen Schwankungen im Plasmakonzentrationsverlauf zu und die Therapie wird unkalkulierbar.

In the case of `O=C1c2ccccc2S(=O)(=O)N1CCCCN1CCN(c2ncccn2)CC1` [Ipsapiron], the bioavailability is 40%.

The values above are taken from patent EP0629402A1, “Pharmaceutical compositions containing ipsapirone” (BAYER AG, priority 1993, dated 1994).
